Consider six compounds from paper PMC9719539, “Single-molecule characterization of subtype-specific β1 integrin mechanics” (Nature Communications, 2022).

Test [1] concerns BJ-5ta cells. Kind of test: Percentage of cells producing rupture signals on RGD-12pN with or without soluble cRGDfK. In kind it is cell-based, human. As to conditions: RGD-12pN (BHQ2-Cy3, 100 nM); soluble ligand 100 µM; n = 4. The text has this: Source data are provided as a Source Data file. […]
In test [2] the target is T1, EO state of integrin α5β1 (Homo sapiens, UniProt P05556+P08648).
T1 construct: endogenous in cells; host or cells: K562 wild type
T1 sequence (P08648 42-894 limits assumed): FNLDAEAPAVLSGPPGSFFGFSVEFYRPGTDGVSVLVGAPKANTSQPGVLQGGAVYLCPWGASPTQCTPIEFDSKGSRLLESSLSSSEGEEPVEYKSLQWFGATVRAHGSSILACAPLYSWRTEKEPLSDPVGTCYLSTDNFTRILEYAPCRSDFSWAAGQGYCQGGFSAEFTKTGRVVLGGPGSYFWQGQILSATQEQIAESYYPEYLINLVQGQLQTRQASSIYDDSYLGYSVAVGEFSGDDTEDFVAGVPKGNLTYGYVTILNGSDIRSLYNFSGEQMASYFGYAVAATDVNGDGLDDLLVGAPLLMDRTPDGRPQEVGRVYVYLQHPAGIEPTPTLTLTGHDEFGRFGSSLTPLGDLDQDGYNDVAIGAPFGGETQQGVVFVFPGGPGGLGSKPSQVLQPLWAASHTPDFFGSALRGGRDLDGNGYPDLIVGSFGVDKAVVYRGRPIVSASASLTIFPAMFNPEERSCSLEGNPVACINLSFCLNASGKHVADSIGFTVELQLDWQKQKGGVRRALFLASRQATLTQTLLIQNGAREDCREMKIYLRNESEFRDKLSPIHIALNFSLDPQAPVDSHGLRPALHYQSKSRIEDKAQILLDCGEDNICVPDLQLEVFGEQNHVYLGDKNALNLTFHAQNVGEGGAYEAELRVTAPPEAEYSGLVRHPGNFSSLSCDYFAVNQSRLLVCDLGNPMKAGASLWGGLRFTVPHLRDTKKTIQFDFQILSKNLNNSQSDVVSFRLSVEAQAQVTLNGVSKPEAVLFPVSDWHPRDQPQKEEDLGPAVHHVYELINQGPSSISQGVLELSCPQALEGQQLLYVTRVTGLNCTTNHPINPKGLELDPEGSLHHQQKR
T1 sequence (P08648 895-1049 partner limits assumed): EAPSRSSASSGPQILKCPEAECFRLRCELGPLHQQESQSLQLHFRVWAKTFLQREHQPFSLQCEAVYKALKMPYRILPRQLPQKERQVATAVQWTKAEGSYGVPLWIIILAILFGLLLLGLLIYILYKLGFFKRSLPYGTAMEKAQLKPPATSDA
T1 sequence (P05556 21-798): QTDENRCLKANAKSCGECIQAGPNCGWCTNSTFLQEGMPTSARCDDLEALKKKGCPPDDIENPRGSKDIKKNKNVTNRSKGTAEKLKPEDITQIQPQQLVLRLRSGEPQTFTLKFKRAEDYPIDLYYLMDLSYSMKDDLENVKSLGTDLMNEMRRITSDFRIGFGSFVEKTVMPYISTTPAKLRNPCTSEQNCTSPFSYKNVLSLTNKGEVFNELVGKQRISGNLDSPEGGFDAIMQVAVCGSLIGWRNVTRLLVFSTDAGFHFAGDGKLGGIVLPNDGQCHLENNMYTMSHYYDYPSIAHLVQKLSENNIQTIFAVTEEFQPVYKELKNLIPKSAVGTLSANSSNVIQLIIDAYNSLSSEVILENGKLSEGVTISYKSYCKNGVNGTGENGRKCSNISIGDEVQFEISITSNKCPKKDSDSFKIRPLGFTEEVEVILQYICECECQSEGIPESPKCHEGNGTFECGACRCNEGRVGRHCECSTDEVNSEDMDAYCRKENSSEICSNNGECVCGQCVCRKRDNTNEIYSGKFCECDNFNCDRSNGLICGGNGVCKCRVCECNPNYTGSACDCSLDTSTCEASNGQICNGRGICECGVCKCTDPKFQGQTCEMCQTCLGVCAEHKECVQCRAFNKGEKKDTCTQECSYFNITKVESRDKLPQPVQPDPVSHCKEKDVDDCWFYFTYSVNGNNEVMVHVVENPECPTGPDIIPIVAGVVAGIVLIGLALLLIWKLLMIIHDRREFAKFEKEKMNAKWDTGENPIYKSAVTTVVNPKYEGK
The experiment in a line: Intrinsic affinity for EO state of α5β1 stabilized by 12G10 Fab. Format: binding. To be noted: 2 µM 12G10 Fab versus basal. The text has this:
(§1) provided as a Source Data file.
(§2) (3 pictures or pasted objects on this page, not shown here)

Test [3] relates to extended-open β1 integrin on BJ-5ta cells. Kind of test: β1 integrin activation: number and density of bound AF647-12G10 Fab on biotin-PEG-cholesterol immobilized cells. In kind it is cell-based, human.
Experimental: Cholesterol (CLS) linked to biotin with PEG (~13 nm) immobilizes cells on neutravidin and TGT-coated surfaces. b Cell images and AF647-12G10 Fab (20 nM) signal 1 h after seeding. Scale bar, 10 µm. c–e Cell area and 12G10 Fab signal were measured 30 min after seeding (n = 43, 55, 62, 69, 21, 29; 83, 59, 83, 92, 68, 62 cells from two independent experiments). c Close-contact enclosed area of cells. […] Fluorescent Fab signal was calibrated by analyzing stepwise signal increase due to nonspecific Fab binding to surfaces outside the area imaged with cells (Supplementary Fig. 4a). e Density of 12G10 Fab for each cell. Lines show mean ± SE. Two-sided t-test for p-values. Not significant (ns), p > 0.05.
The cells were gently harvested by washing in PBS for 1 min, incubating with 0.05% trypsin for 3 min, and then neutralizing with cell culture medium (FBS 10%). […] A Nikon Eclipse Ti microscope equipped with Xenon arc lamp, Nikon perfect focus system, custom total internal reflection fluorescence microscopy (TIRFM) module, and custom reflection interference contrast microscopy (RICM) module was driven by Elements software. […] Images were recorded using an electron-multiplying charge-coupled device (EMCCD; Andor iXon 888). […]
In test [4] the test system is BJ-5ta cells. The experiment in a line: Percentage of spread cells / cell spreading on TGT surfaces. Format: cell-based, human. As to conditions: for Spread cells on TGT, 12pN: Ttol 12pN, SE in own column, n = 3 independent experiments; for Spread cells on TGT, 12pN / Spread cells on TGT, 23pN / Spread cells on TGT, 33pN / Spread cells on TGT, 43pN / Spread cells on TGT, 54pN: mean, given as fraction; for Spread cells on TGT, 23pN: Ttol 23pN; for Spread cells on TGT, 23pN / Spread cells on TGT, 33pN / Spread cells on TGT, 43pN / Spread cells on TGT, 54pN: n = 3; for Spread cells on TGT, 33pN: Ttol 33pN; for Spread cells on TGT, 43pN: Ttol 43pN; for Spread cells on TGT, 54pN: Ttol 54pN. The procedure: Glass coverslips were densely PEGylated to minimize non-specific interactions such as the binding of cell-secreted extracellular matrix proteins. Coverslips cleaned by piranha etching solution (a 3:1 mixture of sulfuric acid and hydrogen peroxide) were incubated in silanization solution (UCT, 1760-24-3; 2% aminosilane and 5% acetic acid in methanol) for 30 min and reacted with a mixture of Polyethylene glycol (PEG) with and without biotin (1:19, 150 mg/ml; Laysan Bio, Biotin-PEG-SVA-5000 and MPEG-SVA-5000) for 4 h. Surfaces were washed thoroughly and dried using nitrogen gas after each step. A 3D-printed dish (PLA) or a silicon gasket (Grace Bio Labs, 103280) was attached to the coverslip to form a dish. Neutravidin (Thermo Fisher scientific, 31000; 0.4 mg/ml) was added to the dish for 10 min and washed out thoroughly. The dish was emptied and a droplet (3 µL) of TGT solution (100 nM unless specified otherwise) was placed on the coverslip for 10 min in a humid condition to locally immobilize TGT. For the lateral drift correction for time-resolved TGT rupture analysis, biotin-coated gold nanoparticles (Luna Nanotech, GNP-BIOT-100-2-04; 100 nm) were sparsely immobilized as fiducial markers. For protein ligand coating, protein (50 ug/ml in PBS) was incubated in glass bottomed imaging dishes for 1 h at RT without additional passivation.
The cells were gently harvested by washing in PBS for 1 min, incubating with 0.05% trypsin for 3 min, and then neutralizing with cell culture medium (FBS 10%). The cells were spun down and resuspended with Leibovitz’s L-15 Medium (Gibco, 21083027) supplemented with 2 g/L glucose, then seeded on the TGT surface at an approximate density of 30 cells/mm^2. For integrin inhibition experiments, cells were incubated with Fab for 5 min before seeding. For cell immobilization experiments, cells were incubated with 1 nM Cholesterol-PEG-Biotin (Nanosoft Polymers, 3084-2000) for 5 min, followed by washes by centrifugation to remove biotin in solution before seeding. The imaging area was humidified and the temperature was maintained at 37 °C. A Nikon Eclipse Ti microscope equipped with Xenon arc lamp, Nikon perfect focus system, custom total internal reflection fluorescence microscopy (TIRFM) module, and custom reflection interference contrast microscopy (RICM) module was driven by Elements software. Dark regions in RICM show where cells have closely adhered to the surface (≪300 nm gap). Nikon 10X objective (CFI60 Plan Fluor) and 60X objective (CFI60 Apochromat TIRF) with DIC filter sets were used. […] Images were recorded using an electron-multiplying charge-coupled device (EMCCD; Andor iXon 888).
Single-cell data were obtained from multiple independent sample preparations for each condition as specified. Percentage of spread cells was obtained from three independent experiments. Statistical analyses were performed using MATLAB software. Two-sided (two sample) t-test was used for two group comparisons. Each group was compared with the control group unless specified otherwise. Representative micrographs are selected from at least two independent experiments.

Test [5] has as its target T2, EO state of integrin αVβ1 (Homo sapiens, UniProt P05556+P06756).
T2 construct: expressed in transfected cells
The experiment in a line: Intrinsic affinity for EO state of αVβ1 stabilized by 12G10 Fab. Format: binding. To be noted: 2 µM 12G10 Fab versus basal.
Source text: as §1, §2

The next test deals with BJ-5ta fibroblasts. Kind of test: Spreading of BJ-5ta fibroblasts on linear GRRGD-TGT (peer review file). In kind it is cell-based, human. As to conditions: 100 nM, 1 h. The procedure: RGT-TGTs is reproduced using the linear RGD, showing that the high tension threshold for cell spreading is not an artifact of ligand cyclization.
Figure R5 | BJ-5ta fibroblasts on linear RGD ligand surfaces. Cells were seeded for one hour on TGTs conjugated […]
with a linear RGD peptide ([…]; GRRGD-TGT). GRRGD-TGT (100 nM) was immobilized on […]
PEG-passivated and neutravidin functionalized surface. GRRGD-54pN was incubated without neutravidin for control. Images (left) and cell area measured from RICM images (right) are shown. Scale bar, 10 μm. […]

Test [6] has as its system BJ-5ta cells. The experiment in a line: Traction force microscopy on ligand-coated polyacrylamide gels. In kind it is cell-based, human. As for the experimental part: Polyacrylamide gels (0.69 and 4.07 kPa shear modulus, 40 μm thickness) were prepared on glass coverslips with embedded 40 nm fluorescent beads (Thermo Scientific, TransFluoSpheres 633/720) and the surfaces were coated with neutravidin as described. […] Cells were seeded on the gels for 1 h. The bead images were taken before and after cell removal with the addition of 0.1% SDS. Bead displacements were determined using particle image velocimetry, and the corresponding contractile energy was estimated with Fourier transform traction cytometry, using ImageJ plugins. The cell area was determined by manually drawing an ROI in the DIC channel. Imaging was performed on Nikon Eclipse Ti2 microscopes equipped with Perfect Focus, CSU-W1 spinning disk, and Hamamatsu Orca-flash 4.0 v3 camera. Illumination was provided by optical fiber (Oz Optics) coupled solid-state lasers: 561 nm (200 mW) for Cy3 and, 655 nm (100 mW) for fluorescent beads from Spectral Applied Research.

Another test addresses integrin α4β1 (EO state). As to conditions: extended-open conformation; read-out: affinity for EO state of α4β1; cited from earlier work.
A further test concerns the target integrin α5β1 (EO state). As to conditions: extended-open conformation; read-out: affinity for α5β1 in extended-open conformation; cited from earlier work. The text has this:
The response of the cytoskeletal machinery is thus not predetermined by cell type, but is highly regulatable by the type of ligand outside the cell. […] Further, by using 264 the specific panels of antibodies, the authors claim that RGD-based adhesion and spreading is dominated by 265 aVb1 integrin in their RGD-dependent system.

Test [7] concerns BJ-5ta cells. The experiment in a line: BJ-5ta spreading on ACRGD-TGT with or without integrin blocking Fabs (area, aspect ratio). In kind it is cell-based, human. The procedure: Fig. 9 Integrin α5β1 mediated cell spreading. a Affinity of ACRGD for integrins on intact cells. Titration curves are shown in Supplementary Fig. 13. b–d Behavior of BJ-5ta on ACRGD-54pN (BHQ2-Cy3) surfaces after 1 h in presence of integrin blocking Fabs described in Fig. 6 legend. b Close-contact enclosed area from RICM images (n = 43, 38, 47, 96, 50 cells). c Aspect ratio of contact area (n = 56, 49, 38 cells, >500 μm^2). d Ruptured TGT counts (n = 44, 40, 48, 96 cells). e–g Cell spreading on ACRGD-TGT of different Ttol in presence of integrin blocking Fabs. e Representative images of cells with RICM (top row) and same cells with DIC or Cy3 fluorescence to show TGT rupture (bottom row). Dim RICM rings (~20 μm diameter) with 12, 23 and 33 pN TGT are the shadows of the spherical cell body, not the close contacts. […]
The cells were gently harvested by washing in PBS for 1 min, incubating with 0.05% trypsin for 3 min, and then neutralizing with cell culture medium (FBS 10%). […] A Nikon Eclipse Ti microscope equipped with Xenon arc lamp, Nikon perfect focus system, custom total internal reflection fluorescence microscopy (TIRFM) module, and custom reflection interference contrast microscopy (RICM) module was driven by Elements software. […] Images were recorded using an electron-multiplying charge-coupled device (EMCCD; Andor iXon 888).

Test [8] deals with integrin α5β1 on intact cells. As to conditions: ref Li et al., 2017; read-out: affinity to α5β1 on intact cells; cited from earlier work. The text has this: For inhibition studies we used a different subset of inhibitory IPI and Biogen Fabs with RGD-mimetic heavy chain CDR3 sequences (Supplementary Table 1). […] They show selectivities for αVβ1, αVβ3 and αVβ5 ranging from 160 fold to 2000 fold. […] As we show in Fig.5, even though α5β1 has the highest 316 expression level among all the RGD-binding integrins expressed on BJ-5ta cell, it could not mediate cell 317 adhesion and spreading on the cyclo- ...

T2 sequence (P06756 31-889 limits assumed): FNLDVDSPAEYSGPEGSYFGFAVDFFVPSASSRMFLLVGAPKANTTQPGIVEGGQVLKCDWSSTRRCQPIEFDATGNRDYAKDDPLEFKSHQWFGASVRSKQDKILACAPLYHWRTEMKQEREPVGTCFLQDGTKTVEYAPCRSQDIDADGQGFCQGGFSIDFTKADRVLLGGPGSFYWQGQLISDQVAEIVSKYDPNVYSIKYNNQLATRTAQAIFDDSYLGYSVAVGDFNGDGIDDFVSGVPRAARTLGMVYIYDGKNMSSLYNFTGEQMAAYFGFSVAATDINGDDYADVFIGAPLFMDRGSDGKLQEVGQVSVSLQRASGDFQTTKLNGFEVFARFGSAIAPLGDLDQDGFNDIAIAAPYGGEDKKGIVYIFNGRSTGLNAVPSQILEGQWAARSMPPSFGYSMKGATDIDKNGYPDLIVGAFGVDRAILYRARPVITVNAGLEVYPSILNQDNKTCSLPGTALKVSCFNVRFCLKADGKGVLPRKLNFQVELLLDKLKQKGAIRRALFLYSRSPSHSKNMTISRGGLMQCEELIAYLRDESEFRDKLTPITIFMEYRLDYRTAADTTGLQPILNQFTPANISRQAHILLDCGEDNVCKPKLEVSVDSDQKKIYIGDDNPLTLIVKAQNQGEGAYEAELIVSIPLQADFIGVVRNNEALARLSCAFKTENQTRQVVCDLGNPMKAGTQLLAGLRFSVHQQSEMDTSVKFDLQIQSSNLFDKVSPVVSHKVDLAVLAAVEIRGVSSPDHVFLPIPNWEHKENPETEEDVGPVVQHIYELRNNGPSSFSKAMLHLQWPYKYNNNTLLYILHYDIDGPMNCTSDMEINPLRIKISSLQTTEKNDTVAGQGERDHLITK
T2 sequence (P06756 891-1048 partner limits assumed): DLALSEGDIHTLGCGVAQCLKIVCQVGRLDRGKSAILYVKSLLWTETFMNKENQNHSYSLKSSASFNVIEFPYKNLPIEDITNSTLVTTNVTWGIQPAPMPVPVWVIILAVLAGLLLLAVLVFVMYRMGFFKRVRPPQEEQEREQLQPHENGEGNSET
T2 sequence (P05556 21-798): as the sequence (P05556 21-798) above

For `N=C(N)NCCC[C@@H]1NC(=O)[C@H](CCCCN)NC(=O)[C@@H](Cc2ccccc2)NC(=O)[C@H](CC(=O)O)NC(=O)CNC1=O` [cRGDfK, cyclo[Arg-Gly-Asp-D-Phe-Lys]], the “rupture signal with soluble cRGDfK (in words)” value in the test with BJ-5ta cells [1] is given as “No cellproduced a significant rupture signal”. For the same compound, the “EO affinity over basal affinity, α5β1” value in test [2] was found to be 7000 fold. Further, in test [3], the “force needed for activation of β1 integrin to high affinity state” value is listed as “less than 12 pN”. In addition, the “tension threshold for cell spreading” value with BJ-5ta cells [4] (1 h, nominal Ttol) is listed as above 33 pN. Also, the “spread cells (fraction), sheet 1c” value with BJ-5ta cells [4] (TGT 1 nM) came out at 0.00565; in the test with BJ-5ta cells [4] (TGT 3 nM), 0.03764; in the test with BJ-5ta cells [4] (TGT 10 nM), 0.4242; in the test with BJ-5ta cells [4] (TGT 30 nM), 0.8968; in the test on BJ-5ta cells [4] (TGT 100 nM), 0.9524. The “Spread cells on TGT, 12pN” value in the test with BJ-5ta cells [4] (1 h) was determined as 0.00901. Also, the “Spread cells on TGT, 23pN” value with BJ-5ta cells [4] (1 h) came out at 0.05. Moreover, in the test on BJ-5ta cells [4] (1 h), the “Spread cells on TGT, 33pN” value is given as 0.0778. Moreover, the “Spread cells on TGT, 43pN” value in the test on BJ-5ta cells [4] (1 h) came out at 0.8932. In addition, in the test on BJ-5ta cells [4] (1 h), the “Spread cells on TGT, 54pN” value is on record as 0.9524. Also, in [5], the “EO affinity over basal affinity, αVβ1” value was determined as 60 fold.

On to GRRGDLATIHGGK [GRRGD-TGT], for which the “spreading on linear RGD-TGT (in words)” value with BJ-5ta fibroblasts is “no spreading for weak TGTs, with tension tolerance below 40 pN”.

As for “MUPA-LDVPAAK [α4β1-specific peptidomimetic; 2-methylphenylureaphenylacetyl moiety linked to LDVP motif]”, the “spread cells (fraction), sheet 1c” value is listed as 0.05399 with BJ-5ta cells [4] (TGT 0.01 nM); 0 with BJ-5ta cells [4] (TGT 0.1 nM); 0.8785 in the test with BJ-5ta cells [4] (TGT 0.3 nM); 0.9623 with BJ-5ta cells [4] (TGT 1 nM); 0.9712 in the test on BJ-5ta cells [4] (TGT 10 nM); 0.9873 in the test with BJ-5ta cells [4] (TGT 100 nM). Moreover, in the test with BJ-5ta cells [4] (1 h), the “Spread cells on TGT, 12pN” value was 0.9277. Further, the “Spread cells on TGT, 23pN” value in the test on BJ-5ta cells [4] (1 h) was found to be 0.9461. Further, in the test with BJ-5ta cells [4] (1 h), the “Spread cells on TGT, 33pN” value was 0.9711. For the same compound, the “Spread cells on TGT, 43pN” value with BJ-5ta cells [4] (1 h) is 0.9954. In addition, the “Spread cells on TGT, 54pN” value in the test with BJ-5ta cells [4] (1 h) amounted to 0.9781. The “traction force (in words)” value in the test with BJ-5ta cells [6] (4 kPa and 0.7 kPa gels, versus RGD) is on record as “significantly lower”. In the test with BJ-5ta cells [6] (soft gel (0.7 kPa)), the “lower traction force than on RGD” value was ~ 10 fold. For the same compound, the Kd on integrin α4β1 (EO state) is 0.15 nM.

On to cyclic-ACRGDGWCGK (disulfide), for which, at integrin α5β1 (EO state), the Kd was 2.2 ± 0.5 nM.

Consider “cyclic-ACRGDGWCGK (disulfide) [ACRGD-TGT]”, for which the “spreading on ACRGD-54pN with blocking Fabs (in words)” value with BJ-5ta cells [7] (ACRGD-54pN (BHQ2-Cy3), 1 h) is “spread efficiently and developed elongated, irregular shapes”. In the test with BJ-5ta cells [7] (blocking Fabs to αVβ1, αVβ3 and αVβ5 present), the “force level required for spreading through α5β1” value is above 33 pN.

In the case of fibronectin, in test [8], the Kd was 1100 nM.
